Values after ≈ are worked out from the molar mass of the structure shown. Each block holds one molecule with its values, some of them ahead of it. Active and inactive are the calls of the source. The rule behind the calls is not given here.
Experiments:
[1] = target: T1, Calcitonin gene-related peptide type 1 receptor (Homo sapiens, UniProt O60894+Q16602); assay: Displacement of [125I]-CGRP from CGRP receptor in human SK-N-MC cells after 2 hrs by gamma scintillation counter analysis; format: cell-based
T1 sequence (Q16602 whole entry, one chain of several): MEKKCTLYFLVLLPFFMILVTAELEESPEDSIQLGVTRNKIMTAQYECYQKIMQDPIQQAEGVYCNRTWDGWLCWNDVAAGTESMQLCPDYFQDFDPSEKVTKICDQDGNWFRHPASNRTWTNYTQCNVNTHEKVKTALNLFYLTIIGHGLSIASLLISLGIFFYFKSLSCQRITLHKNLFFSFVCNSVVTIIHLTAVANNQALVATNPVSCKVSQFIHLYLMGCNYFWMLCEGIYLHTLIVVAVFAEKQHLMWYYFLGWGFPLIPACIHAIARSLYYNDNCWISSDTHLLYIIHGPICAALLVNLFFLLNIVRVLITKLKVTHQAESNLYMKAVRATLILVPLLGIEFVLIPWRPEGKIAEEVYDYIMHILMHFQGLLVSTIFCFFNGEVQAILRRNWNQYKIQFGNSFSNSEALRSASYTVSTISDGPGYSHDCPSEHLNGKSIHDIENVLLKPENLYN

Homo sapiens = species on record: Homo sapiens; assay: Toxicity in human up to 600 mg; format: organism-based; details: in vivo
Salmonella typhimurium = assay: Genotoxicity in Salmonella typhimurium by Ames test; format: toxicity, organism-based; details: salmonella enterica subsp. enterica serovar typhimurium
[2] = target: Voltage-gated L-type calcium channel (Homo sapiens, UniProt Q13936+Q13698+Q01668+O60840); assay: Inhibition of L type calcium channel expressed in HEK293 cells at 10 to 30 uM; format: cell-based
HEK293 = assay: Inhibition of L type sodium channel expressed in HEK293 cells at 10 to 30 uM; format: cell-based; details: Homo sapiens
[3] = target: Voltage-gated inwardly rectifying potassium channel KCNH2 (Homo sapiens, UniProt Q12809); assay: Inhibition of human ERG alpha subunit expressed in HEK293 cells at 10 to 30 uM; format: cell-based
Sequence of Voltage-gated inwardly rectifying potassium channel KCNH2 (Q12809 whole entry): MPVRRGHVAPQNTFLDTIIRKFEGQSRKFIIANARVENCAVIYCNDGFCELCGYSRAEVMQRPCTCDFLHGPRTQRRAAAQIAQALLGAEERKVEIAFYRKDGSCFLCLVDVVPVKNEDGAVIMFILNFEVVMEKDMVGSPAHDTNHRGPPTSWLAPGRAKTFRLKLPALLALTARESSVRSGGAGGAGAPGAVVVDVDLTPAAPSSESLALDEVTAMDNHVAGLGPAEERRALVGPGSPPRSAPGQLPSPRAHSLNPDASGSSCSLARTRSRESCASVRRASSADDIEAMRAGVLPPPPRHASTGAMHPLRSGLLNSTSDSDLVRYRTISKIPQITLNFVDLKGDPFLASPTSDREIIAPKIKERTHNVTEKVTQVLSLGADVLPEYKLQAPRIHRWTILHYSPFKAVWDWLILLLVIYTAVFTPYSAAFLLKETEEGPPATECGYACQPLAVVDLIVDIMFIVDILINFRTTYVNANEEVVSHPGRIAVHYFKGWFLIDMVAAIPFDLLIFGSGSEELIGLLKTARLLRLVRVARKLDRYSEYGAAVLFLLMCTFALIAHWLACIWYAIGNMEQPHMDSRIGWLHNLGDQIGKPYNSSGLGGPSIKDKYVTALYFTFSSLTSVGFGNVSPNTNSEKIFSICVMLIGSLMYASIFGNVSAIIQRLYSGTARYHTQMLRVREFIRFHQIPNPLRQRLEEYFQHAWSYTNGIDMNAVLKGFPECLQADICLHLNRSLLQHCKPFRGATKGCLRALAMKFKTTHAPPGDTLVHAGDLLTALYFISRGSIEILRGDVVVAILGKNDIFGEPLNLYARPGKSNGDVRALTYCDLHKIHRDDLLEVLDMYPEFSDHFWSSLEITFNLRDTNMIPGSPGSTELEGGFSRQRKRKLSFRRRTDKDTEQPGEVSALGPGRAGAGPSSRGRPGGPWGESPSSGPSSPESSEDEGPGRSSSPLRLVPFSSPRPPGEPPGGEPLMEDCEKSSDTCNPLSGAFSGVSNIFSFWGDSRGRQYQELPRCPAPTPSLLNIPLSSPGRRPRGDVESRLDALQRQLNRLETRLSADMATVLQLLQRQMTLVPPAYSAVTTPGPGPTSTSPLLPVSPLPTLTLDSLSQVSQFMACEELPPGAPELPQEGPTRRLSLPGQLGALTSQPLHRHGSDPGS

Cytochrome P450 2E1 = Cytochrome P450 2E1 (Homo sapiens, UniProt P05181); assay: Inhibition of human recombinant CYP2E1 after 45 mins by fluorescence assay; format: ADME
Sequence of Cytochrome P450 2E1 (P05181 whole entry): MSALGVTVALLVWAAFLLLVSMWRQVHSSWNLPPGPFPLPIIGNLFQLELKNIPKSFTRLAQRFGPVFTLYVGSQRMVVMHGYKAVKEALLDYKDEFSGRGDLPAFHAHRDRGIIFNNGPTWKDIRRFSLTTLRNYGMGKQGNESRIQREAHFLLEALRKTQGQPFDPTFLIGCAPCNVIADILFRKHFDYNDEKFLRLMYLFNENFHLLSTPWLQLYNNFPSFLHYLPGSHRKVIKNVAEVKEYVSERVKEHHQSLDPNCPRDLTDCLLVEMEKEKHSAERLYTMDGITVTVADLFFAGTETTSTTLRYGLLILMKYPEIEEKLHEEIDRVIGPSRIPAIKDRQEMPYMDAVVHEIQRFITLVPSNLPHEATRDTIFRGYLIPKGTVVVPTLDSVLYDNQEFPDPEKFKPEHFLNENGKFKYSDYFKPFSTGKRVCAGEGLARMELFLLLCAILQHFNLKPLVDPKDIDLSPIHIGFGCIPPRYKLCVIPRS

Cytochrome P450 2B6 = target: T2, Cytochrome P450 2B6 (Homo sapiens, UniProt P20813); assay: Inhibition of human recombinant CYP2B6 after 45 mins by fluorescence assay; format: ADME
T2 sequence (P20813 whole entry): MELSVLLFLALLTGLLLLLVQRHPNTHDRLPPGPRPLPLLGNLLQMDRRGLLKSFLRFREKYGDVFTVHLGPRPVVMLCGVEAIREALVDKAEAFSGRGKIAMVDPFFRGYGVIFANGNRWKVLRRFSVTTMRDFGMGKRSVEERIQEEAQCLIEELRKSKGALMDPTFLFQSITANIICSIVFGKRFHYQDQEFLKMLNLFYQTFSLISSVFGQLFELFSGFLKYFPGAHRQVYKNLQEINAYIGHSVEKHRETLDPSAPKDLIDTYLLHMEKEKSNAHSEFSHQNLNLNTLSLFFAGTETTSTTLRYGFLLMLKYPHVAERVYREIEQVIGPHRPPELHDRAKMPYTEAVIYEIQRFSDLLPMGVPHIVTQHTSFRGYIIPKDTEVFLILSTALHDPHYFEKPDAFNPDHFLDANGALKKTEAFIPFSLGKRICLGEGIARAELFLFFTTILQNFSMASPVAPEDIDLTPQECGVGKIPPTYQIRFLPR

Cytochrome P450 2A6 = target: T3, Cytochrome P450 2A6 (Homo sapiens, UniProt P11509); assay: Inhibition of human recombinant CYP2A6 after 45 mins by fluorescence assay; format: ADME
T3 sequence (P11509 whole entry): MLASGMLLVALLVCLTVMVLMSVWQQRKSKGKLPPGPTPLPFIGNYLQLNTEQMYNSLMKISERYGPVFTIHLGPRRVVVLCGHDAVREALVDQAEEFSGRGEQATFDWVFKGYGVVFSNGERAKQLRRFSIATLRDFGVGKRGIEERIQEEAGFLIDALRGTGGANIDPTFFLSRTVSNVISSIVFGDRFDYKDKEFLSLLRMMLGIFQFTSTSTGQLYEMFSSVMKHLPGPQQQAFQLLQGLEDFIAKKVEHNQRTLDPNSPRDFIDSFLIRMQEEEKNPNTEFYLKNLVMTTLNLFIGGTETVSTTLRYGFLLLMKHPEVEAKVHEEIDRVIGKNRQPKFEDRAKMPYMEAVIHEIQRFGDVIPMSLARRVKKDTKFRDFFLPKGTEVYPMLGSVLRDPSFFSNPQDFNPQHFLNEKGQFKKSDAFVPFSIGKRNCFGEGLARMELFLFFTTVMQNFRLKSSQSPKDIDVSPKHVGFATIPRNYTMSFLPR

Cytochrome P450 2D6 = Cytochrome P450 2D6 (Homo sapiens, UniProt P10635); assay: Inhibition of human recombinant CYP2D6 using 3-[2-(N,N-diethyl-Nmethylamino) ethyl]-7-methoxy-4-methylcoumarin as substrate after 45 mins by fluorescence assay; format: ADME
Sequence of Cytochrome P450 2D6 (P10635 whole entry): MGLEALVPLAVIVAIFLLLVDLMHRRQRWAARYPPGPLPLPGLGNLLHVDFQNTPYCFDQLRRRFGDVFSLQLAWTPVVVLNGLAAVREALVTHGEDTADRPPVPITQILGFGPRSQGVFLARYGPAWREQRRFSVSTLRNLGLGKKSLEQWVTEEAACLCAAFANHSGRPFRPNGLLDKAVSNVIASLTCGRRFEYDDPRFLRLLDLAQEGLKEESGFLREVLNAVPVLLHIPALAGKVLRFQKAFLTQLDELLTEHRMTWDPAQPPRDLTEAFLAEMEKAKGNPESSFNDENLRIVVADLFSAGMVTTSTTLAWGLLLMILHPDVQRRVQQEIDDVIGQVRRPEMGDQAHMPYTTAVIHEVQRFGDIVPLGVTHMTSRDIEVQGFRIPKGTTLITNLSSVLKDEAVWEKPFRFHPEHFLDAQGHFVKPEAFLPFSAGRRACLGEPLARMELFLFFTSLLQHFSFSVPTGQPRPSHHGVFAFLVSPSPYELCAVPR

Cytochrome P450 2C9 = Cytochrome P450 2C9 (Homo sapiens, UniProt P11712); assay: Inhibition of human recombinant CYP2C9 using 7-methoxy-4-trifluoromethylcoumarin as substrate after 45 mins by fluorescence assay; format: ADME
Sequence of Cytochrome P450 2C9 (P11712 whole entry): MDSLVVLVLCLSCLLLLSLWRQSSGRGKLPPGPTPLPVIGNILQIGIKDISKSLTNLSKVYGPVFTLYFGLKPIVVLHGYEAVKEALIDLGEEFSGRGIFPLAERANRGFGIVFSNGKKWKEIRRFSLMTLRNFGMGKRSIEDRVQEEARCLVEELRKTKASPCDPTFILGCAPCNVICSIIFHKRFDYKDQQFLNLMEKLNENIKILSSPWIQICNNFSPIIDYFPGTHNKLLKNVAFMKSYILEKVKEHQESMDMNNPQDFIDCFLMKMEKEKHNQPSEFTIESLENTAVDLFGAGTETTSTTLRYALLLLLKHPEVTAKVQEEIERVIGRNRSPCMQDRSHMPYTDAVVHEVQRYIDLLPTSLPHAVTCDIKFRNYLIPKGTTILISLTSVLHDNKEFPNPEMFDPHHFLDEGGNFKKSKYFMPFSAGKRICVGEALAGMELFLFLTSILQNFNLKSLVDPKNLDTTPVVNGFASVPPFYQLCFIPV

Cytochrome P450 2C19 = Cytochrome P450 2C19 (Homo sapiens, UniProt P33261); assay: Inhibition of human recombinant CYP2C19 using 3-cyano-7-ethoxycoumarine as substrate after 45 mins by fluorescence assay; format: ADME
Sequence of Cytochrome P450 2C19 (P33261 whole entry): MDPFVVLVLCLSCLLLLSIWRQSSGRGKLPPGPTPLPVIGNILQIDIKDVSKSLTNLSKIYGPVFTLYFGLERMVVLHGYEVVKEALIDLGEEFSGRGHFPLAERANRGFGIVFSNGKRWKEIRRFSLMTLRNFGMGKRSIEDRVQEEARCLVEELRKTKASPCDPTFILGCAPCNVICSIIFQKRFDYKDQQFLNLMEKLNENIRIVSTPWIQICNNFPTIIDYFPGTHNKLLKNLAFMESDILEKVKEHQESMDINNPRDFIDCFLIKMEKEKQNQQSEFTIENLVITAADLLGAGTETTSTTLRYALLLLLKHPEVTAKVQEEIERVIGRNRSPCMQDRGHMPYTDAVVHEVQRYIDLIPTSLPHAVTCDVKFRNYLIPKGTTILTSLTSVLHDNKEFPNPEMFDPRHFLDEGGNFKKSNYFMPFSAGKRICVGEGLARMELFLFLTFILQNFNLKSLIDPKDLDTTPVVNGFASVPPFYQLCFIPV

Cytochrome P450 1A2 = target: T4, Cytochrome P450 1A2 (Homo sapiens, UniProt P05177); assay: Inhibition of human recombinant CYP1A2 using 3-cyano-7-ethoxycoumarine as substrate after 45 mins by fluorescence assay; format: ADME
T4 sequence (P05177 whole entry): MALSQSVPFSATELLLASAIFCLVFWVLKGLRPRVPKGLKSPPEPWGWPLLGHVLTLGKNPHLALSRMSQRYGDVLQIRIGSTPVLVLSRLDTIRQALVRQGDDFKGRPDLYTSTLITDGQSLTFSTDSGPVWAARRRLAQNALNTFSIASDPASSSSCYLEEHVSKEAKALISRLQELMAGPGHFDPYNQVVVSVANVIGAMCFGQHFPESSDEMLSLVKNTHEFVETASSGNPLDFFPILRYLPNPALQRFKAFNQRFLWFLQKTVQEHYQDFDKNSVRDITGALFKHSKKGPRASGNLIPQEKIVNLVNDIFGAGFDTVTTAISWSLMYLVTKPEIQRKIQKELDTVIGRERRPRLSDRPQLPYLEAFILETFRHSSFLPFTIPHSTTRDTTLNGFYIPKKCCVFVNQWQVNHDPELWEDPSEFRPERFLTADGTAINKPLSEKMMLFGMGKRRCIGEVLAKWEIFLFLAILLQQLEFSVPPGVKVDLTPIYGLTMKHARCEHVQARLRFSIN

[4] = Oral bioavailability in overnight fasted cynomolgus monkey at 10 mg/kg administered as suspension of crystalline free base; format: ADME, organism-based, Macaca fascicularis; details: in vivo
[5] = Oral bioavailability in overnight fasted cynomolgus monkey at 10 mg/kg administered as solution; format: ADME, organism-based, Macaca fascicularis; details: in vivo
[6] = Oral bioavailability in fasted Sprague-Dawley rat at 10 mg/kg administered as solution; format: ADME, organism-based; details: in vivo
[7] = Plasma concentration in Harlan marmoset at 7 mg/kg, sc after 60 to 105 mins; format: ADME, organism-based, Callithrix jacchus; parameters: dose 7 mg/kg, route subcutaneous; details: in vivo
[8] = Plasma concentration in Harlan marmoset at 7 mg/kg, sc at 15 mins; format: ADME, organism-based, Callithrix jacchus; parameters: dose 7 mg/kg, route subcutaneous
Callithrix jacchus [9] = assay: Antagonist activity at CGRP receptor in Harlan marmoset assessed as inhibition of CGRP-induced facial blood flow at 7 mg/kg, sc administered 45 mins interval for 2 hrs post alphaCGRP challenge measured at 15 mins by laser droppler flowmetry relative to control; format: functional; details: route subcutaneous
Callithrix jacchus [10] = assay: Antagonist activity at CGRP receptor in Harlan marmoset assessed as inhibition of alphaCGRP-induced facial blood flow at 7 mg/kg, sc administered 45 mins interval for 2 hrs post alphaCGRP challenge measured after 60 to 105 mins by laser droppler flowmetry relative to control; format: functional; details: route subcutaneous
[11] = Permeability of the compound at 100 uM at pH 7.4 after 4 hrs by PAMPA; format: ADME; details: read-out: permeability
[12] = Permeability of the compound at 100 uM at pH 5.5 after 4 hrs by PAMPA; format: ADME; details: read-out: permeability
[13] = Half life in human liver microsomes; format: ADME, Microsome
[14] = Aqueous solubility of the compound in crystalline form; format: physicochemical
[15] = Fraction unbound in human plasma; format: ADME, cell-free
[16] = target: T1, Calcitonin gene-related peptide type 1 receptor; assay: Antagonist activity at CGRP receptor in human SK-N-MC cells assessed as inhibition of CGRP-stimulated cAMP production preincubated for 15 mins prior to CGRP challenge measured after 30 mins by HTRF assay; format: functional, cell-based
[17] = Aqueous solubility of the compound in amorphous form; format: physicochemical

Structure (SMILES): O=C(O[C@@H]1CC[C@@H](c2cccc(F)c2F)[C@@H](O)c2cccnc21)N1CCC(n2c(=O)[nH]c3ncccc32)CC1
Ki [1]: 4.3 nM

Structure (SMILES): O=C(O[C@@H]1CC[C@H](c2cccc(F)c2F)[C@H](O)c2cccnc21)N1CCC(n2c(=O)[nH]c3ncccc32)CC1 (mixture of isomers)
Ki [1]: 0.67 nM

Structure (SMILES): O=C(O[C@@H]1CC[C@@H](c2cccc(F)c2F)[C@H](O)c2cccnc21)N1CCC(n2c(=O)[nH]c3ncccc32)CC1
solubility [17]: 66 µg/mL (≈ 123 µM)
half-life [13]: 1.17 h
fraction unbound [15]: 0.041
Ki [1]: 0.081 nM

Now those with a lower Ki [1], led by results:

inhibition (INH) [2]: Not Active
IC50 (Cytochrome P450 2E1): ≥ 20000 nM
IC50 (Cytochrome P450 2B6): ≥ 20000 nM
IC50 (Cytochrome P450 2A6): ≥ 20000 nM
IC50 (Cytochrome P450 2D6): ≥ 20000 nM
IC50 (Cytochrome P450 2C9): ≥ 20000 nM
IC50 (Cytochrome P450 2C19): ≥ 20000 nM
IC50 (Cytochrome P450 1A2): ≥ 20000 nM
bioavailability [4]: 48%
bioavailability [5]: 67%
bioavailability [6]: 45%
concentration [7]: < 800 nM
concentration at 0.25 h [8]: 400 nM
Papp at 4 h, 100 µM [11]: 32 ×10⁻⁶ cm/s
Papp at 4 h, 100 µM [12]: 19 ×10⁻⁶ cm/s
half-life [13]: 1.38 h
solubility [14]: 50 µg/mL (≈ 93.5 µM)
fraction unbound [15]: 0.069
EC50 [16]: 0.14 nM
Ki [1]: 0.027 nM
Structure (SMILES): N[C@@H]1c2cccnc2[C@H](OC(=O)N2CCC(n3c(=O)[nH]c4ncccc43)CC2)CC[C@H]1c1cccc(F)c1F [RIMEGEPANT]
Activity (Homo sapiens): Non-toxic
Activity (Salmonella typhimurium): Non-toxic
inhibition (HEK293): inactive
inhibition (INH) [3]: < 30%
inhibition in vivo at 7 mg/kg (Callithrix jacchus [9]): > 65%
inhibition in vivo at 7 mg/kg (Callithrix jacchus [10]): 75%

Ki [1]: 0.066 nM
Structure (SMILES): [N-]=[N+]=N[C@@H]1c2cccnc2[C@H](OC(=O)N2CCC(n3c(=O)[nH]c4ncccc43)CC2)CC[C@H]1c1cccc(F)c1F

Source: ChEMBL document CHEMBL2176923, “Discovery of (5S,6S,9R)-5-amino-6-(2,3-difluorophenyl)-6,7,8,9-tetrahydro-5H-cyclohepta[b]pyridin-9-yl 4-(2-oxo-2,3-dihydro-1H-imidazo[4,5-b]pyridin-1-yl)piperidine-1-carboxylate (BMS-927711): an oral calcitonin gene-related peptide (CGRP) antagonist in clinical trials for treating migraine” (J Med Chem, 2012)
